Source: PMC6143625, “A high throughput screen for next-generation leads targeting malaria parasite transmission” (Nature Communications, 2018)

Legend:
[1] = test system: P. falciparum male gametogenesis; assay: Phenotypic immunofluorescence assay of male gamete formation; assay type: cell-based, Plasmodium falciparum; details: 10 µM, 24 h treatment, 0–20 min post induction
Procedure: In vitro evolution followed by whole-genome analysis is the primary approach currently used for understanding how compounds act in malaria parasites. As it is not currently feasible to generate resistant mutants to compounds that are only active in the gametocyte stage (resistance generation requires extensive rounds of replication in the presence of compound), phenotypic immunofluorescence assays were performed to evaluate compound activity on male gamete formation. Gametocytes treated with 10 µM of each compound were sampled at 0, 2, 3, 4, 6, 8, 10, and 20 min post induction of gamete formation before imaging (Fig. 4). Individual male cells were then extracted from the images and analysed for shape and haploid chromosome number/DNA content to quantitatively measure the progression of DNA replication (n = 198–668 cells) (Fig. 5a).
Day 14 gametocyte culture was divided into 4 ml aliquots and treated either with DMSO or 10 µM test compound. After 24 h, 500 µl aliquots of the non-activated gametocytes were fixed in an equal volume of 8% paraformaldehyde (PFA) warmed to 37 °C to generate Time = 0 min (t = 0) samples. Gamete formation was induced in the remainder of the cultures by cooling to RT and addition of 500 µl ookinete medium. At t = 2, 3, 4, 6, 8, 10, and 20 min 500 µl of culture was removed and immediately fixed in equal volume of 8% PFA at room temperature for 15 min. Fixed cells were diluted in PBS and allowed to settle onto poly-L-lysine-coated glass coverslips overnight. The next day, cells were washed in PBS, permeabilized in 0.1% Triton X-100 and blocked in PBS + 10% FBS. Cells were stained with mouse anti-alpha tubulin (Sigma) clone DM1A (1:500 dilution) and rabbit anti-Glycophorin A (Abcam) clone EPR8200 (1:1000 dilution). Staining was visualised with anti-mouse […] and anti-rabbit Alexa555 (Thermo-Fisher) both at 1:1000 dilution. Coverslips were mounted onto glass slides with VectaShield mountant (Vector Laboratories) containing 4′,6-diamidino-2-phenylindole (DAPI) to visualise cellular DNA. Cells were imaged at random (n = 195–668 cells per test compound) using a Nikon Ti-E widefield microscope using a × 100 objective lens and taken in 0.2 µm slice z-stack images to capture the whole cell. All images were converted to maximum intensity projections in NIS Elements v4.20 and all further image processing performed in ICY. Individual cells were manually selected and automatically extracted from each image using the Active Contours plugin gated to the tubulin staining. Using the ROI Statistics plugin, the following parameters were calculated for each cell and exported to MS Excel: Cell area, Cell roundness, Cell elongation, and Average intensity of blue channel (DNA). […] Outlier cells from the curve were all exflagellating (Supplementary Fig. 6). These two parameters were combined as a ratio of roundness:elongation to produce the parameter Cell shape. Cellular DNA content was estimated by multiplying the average pixel intensity of the blue channel (after subtracting the background intensity of an empty area in the same parent image) with the total cell area.

[2] = Stability analysis of DDD599/BPCA (pH buffers, simulated gastric fluid, glutathione); assay type: physicochemical
Procedure: (§1) DMPK analyses were performed by the Dundee University Drug Discovery Unit and BPCA/DDD599 stability analysis were undertaken by chemists at GlaxoSmithKline using in-house, standardised approaches.
123 Supplementary Table 1. Stability analysis of DDD599/BPCA pH10 Ox pH10 pH6 Ox pH6 pH4 Ox pH4 SGF Ox SGF GSH
Additionally, it was also tested in the presence of glutathione. Green text denoted acceptable 127 stability and red text denotes unacceptable stability under test conditions. At pH10 regardless of the presence of 128 H2O2, DDD599/BPCA was unfavourably unstable. […]

[3] = Pharmacokinetic analysis in naïve mice; assay type: in vivo, BALB/c mice
Procedure: DDD291 and DDD881 were then evaluated for in vivo transmission-blocking activity in a mouse model of transmission. […] DDD881 was also administered similarly on day 4 of infection only 30 min prior to mosquito feed in a separate cohort of mice (Supplementary Data 5).
Eight phenylhydrazine-treated mice were infected with P. berghei constitutively expressing GFP. On day 3 of infection, they were assigned into four groups of two mice (DMSO A + B; DDD291 A + B; DDD881 A + B and C + D). Three groups received either 50 mg kg^−1 DDD291, 50 mg kg^−1 DDD881 or DMSO + vehicle control by IP injection. […] The fourth group received a 50 mg kg^−1 DDD881 dose on day 4, 30 min prior to mosquito feed. c Seven days after feeding, mosquitoes were dissected (n = 17–52 per condition) and oocysts recorded by fluorescent microscopy and automated image analysis. Horizontal bars indicate the mean. d PK analysis of DDD881. BALB/c mice were dosed with 50 mg kg^−1 DDD881 (n = 3) and plasma concentrations were monitored over time.

[4] = Aqueous solubility (DMPK); assay type: physicochemical; details: aqueous medium
Procedure: as §1

[5] = test system: P. falciparum transmission to Anopheles stephensi mosquitoes; assay: P. falciparum standard membrane-feeding assay (SMFA), luciferase oocyst readout; assay type: in vivo, Plasmodium falciparum; details: 10 µM
[6] = Mouse liver microsome clearance; assay type: in vitro ADME
Procedure: as §1

[7] = Parallel artificial membrane permeability assay (PAMPA); assay type: in vitro ADME
Procedure: as §1

[8] = mouse, plasma, intraperitoneal, 50 mg kg^−1, BALB/c mice, n = 3

With `O=C(CCl)Nc1ccc(Br)cc1` [BPCA, N-(4-bromophenyl)-2-chloroacetamide] the “phenotype of male gametogenesis (IFA)” value [1] was “rounded up after induction but most cells did not replicate their DNA and none exflagellated”, the remaining at 24 h ([2]; Britton Robinson pH4 buffer + 20M% H2O2, pH 4, pH4 Ox) was 100% and the remaining at 24 h ([2]; Britton Robinson pH4 buffer, pH 4) was 100%. It also gave a half-life ([2]; Britton Robinson pH4 buffer, pH 4, pH4 = Britton Robinson pH4) greater than 41.7 days, a remaining at 24 h ([2]; Britton Robinson pH6 buffer + 20M% H2O2, pH 6, pH6 Ox) of 100% and a remaining at 24 h ([2]; Britton Robinson pH6 buffer, pH 6) of 100%. For the same molecule, the remaining at 24 h ([2]; Britton Robinson pH10 buffer + 20M% H2O2, pH 10, pH10 Ox) was 87%, the remaining at 24 h ([2]; Britton Robinson pH10 buffer, pH 10) was 87% and the “t10% degradation / hours” value ([2]; GSH) was less than 1 h. The remaining at 24 h ([2]; Phosphate buffer pH7.4 with 5mM Glutathione, pH 7.4, GSH) was 0%, the “t10% degradation / hours” value ([2]; SGF) was 118 h and the half-life ([2]; SGF = Simulated Gastric Fluid) was 25.3 days. The “t10% degradation / hours” value ([2]; SGF Ox) was 512 h, the half-life ([2]; SGF Ox = Simulated Gastric Fluid + 20M% H2O2) was greater than 41.7 days and the remaining at 24 h ([2]; Simulated Gastric Fluid + 20M% H2O2, SGF Ox) was 99%. For the same molecule, the remaining at 24 h ([2]; Simulated Gastric Fluid, SGF) was 98%, the “t10% degradation / hours” value ([2]; pH4) was greater than 1000 h and the half-life ([2]; pH 4, pH4 Ox = Britton Robinson pH4 buffer + 20M% H2O2) was greater than 41.7 days. For the same molecule, the “t10% degradation / hours” value ([2]; pH4 Ox) was greater than 1000 h, the “t10% degradation / hours” value ([2]; pH6) was greater than 1000 h and the half-life ([2]; pH 6, pH6 = Britton Robinson pH6 buffer) was greater than 41.7 days. The half-life ([2]; pH 6, pH6 Ox = Britton Robinson pH6 buffer + 20M% H2O2) was greater than 41.7 days, the “t10% degradation / hours” value ([2]; pH6 Ox) was greater than 1000 h and the half-life ([2]; pH 7.4, GSH = Phosphate buffer pH7.4 with 5mM Glutathione) was less than 0.0417 days. The “t10% degradation / hours” value ([2]; pH10) was 18 h, the half-life ([2]; pH 10, pH10 = Britton Robinson pH10 buffer) was 3.92 days and the half-life ([2]; pH 10, pH10 Ox = Britton Robinson pH10 buffer + 20M% H2O2) was 3.83 days. For the same molecule, the “t10% degradation / hours” value ([2]; pH10 Ox) was 18 h.

For `O=S(=O)(NCC1(O)CCOc2ccccc21)c1ccc(Br)s1` (stereo not shown) [DDD01035881], the plasma concentration ([3]; 50 mg kg^−1, up to 120 min after dosing) was ~ 1000 ng ml^−1, the Cmax [3, 8] was 1580 ng/mL and the Tmax [3, 8] was 0.00346 days. For the same molecule, the solubility [4] was greater than 250 µM, the “phenotype of male gametogenesis (IFA)” value [1] was “only a few cells replicated their DNA and none exflagellated” and the “mean normalised luciferase intensity” value ([5]; direct mode) was 0.26. The “prevalence, % of DMSO control” value ([5]; direct mode) was 0.49%, the Average oocyst intensity ([5]; mode direct, per experiment) was 2.8 and the Prevalence ([5]; mode direct, per experiment) was 0.0%.

For `OC1(CN2CCC(Oc3cccc(C(F)(F)F)c3)CC2)CCNC1` (stereo not shown) [DDD01245291], the “mouse liver microsome clearance rate” value [6] was 4.2 ml min^−1 g^−1 Liver, the solubility [4] was greater than 250 µM and the Papp [7] was 0.59 ×10⁻⁶ cm/s. For the same molecule, the “phenotype of male gametogenesis (IFA)” value [1] was “arrested after rounding up”.

In the case of `CC(C)CN1CCn2nc(CNc3ncnc4[nH]ccc34)cc2C1` [DDD01249504], the “phenotype of male gametogenesis (IFA)” value [1] was “the second and third divisions were delayed with a smaller proportion of cells reaching 8n”.

In the case of `Cc1ccc(-c2cc(C(=O)NCCC3=CCCCC3)[nH]n2)o1` [DDD01255968], the “phenotype of male gametogenesis (IFA)” value [1] was “did not replicate their DNA and remained with 1n genome copies”.
